Our source for the EC50 values is patent US8975235B2, “Lysophosphatidic acid receptor antagonists” (InterMune, Inc., priority 2011, dated 2015).

pEC50: −log10 of the molar value.

Chain of Human LPA1 (Q92633 whole entry): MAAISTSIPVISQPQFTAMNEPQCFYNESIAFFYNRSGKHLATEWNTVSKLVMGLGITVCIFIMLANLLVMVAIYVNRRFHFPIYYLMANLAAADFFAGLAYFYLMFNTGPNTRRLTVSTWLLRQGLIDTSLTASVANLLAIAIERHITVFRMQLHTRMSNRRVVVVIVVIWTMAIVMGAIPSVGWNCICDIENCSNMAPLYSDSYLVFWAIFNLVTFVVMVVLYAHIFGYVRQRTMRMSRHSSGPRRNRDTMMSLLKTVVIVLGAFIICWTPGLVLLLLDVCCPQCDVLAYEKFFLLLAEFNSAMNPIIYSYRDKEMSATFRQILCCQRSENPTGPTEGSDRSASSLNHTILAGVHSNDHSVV

The target of the assay is Human LPA1 (Homo sapiens, UniProt Q92633). The experiment in a line: Beta-Arrestin based assay for human LPA1R antagonists (PathHunter). The class given is cell-based. On the set-up: host or cells: CHO. To be noted: CHO cells stably expressing ProLink tagged human LPA1R; agonist LPA 0.5 micromolar. On the procedure:
Beta-Arrestin Based Assays for Human LPA1R Antagonists and Agonists
A CHO cell line stably expressing the ProLink™ tagged human LPA1R was obtained from DiscoverX Inc, Fremont, Calif. In this system, β-Arrestin was fused to an N-terminal deletion mutant of β-galactosidase (termed the enzyme acceptor or EA), the human LPA1R was fused to a smaller (42 amino acids) weakly complementing fragment termed ProLink™. […] Cell handling and assays were performed according to protocols specified in the PathHunter® assays kits (DiscoverX, Fremont, Calif.). Assays were performed in quadruplicate in white 384 well plates. End point luminescence data were plotted and fit to a 4 parameter logistic function to obtain IC50 values. For antagonist assays, an […] concentration of agonist (LPA) equal to 0.5 micromolar was used.
As usually defined, the pEC50 is −log10 of the EC50, conventionally taken in molar units. `Cc1nsc(-c2ccc(-c3ccc(C4(C(=O)O)CCCCC4)cc3)cc2)c1NC(=O)O[C@H](C)c1ccccc1` [Compound 126]: the pEC50 is 6.30 to 7.30.

`Cc1nsc(-c2ccc(-c3ccc(C4(C(=O)O)CC4)cc3)nc2)c1NC(=O)O[C@H](C)c1ccccc1Cl` [Compound 251] gave a pEC50 of 6.30 to 7.30.

`Cc1nsc(-c2ccc(-c3ccc(C4(C(=O)O)CC4)c(Cl)c3)cc2)c1NC(=O)O[C@H](C)c1ccccc1Cl` [Compound 191]: the pEC50 was above 7.30.

With `Cc1nsc(-c2cc(F)c(-c3ccc(C4(C(=O)O)CC4)cc3)cc2F)c1NC(=O)O[C@H](C)c1ccccc1Cl` [Compound 181], the pEC50 is above 7.30.

As to `Cc1nsc(-c2ccc(-c3ccc(C4(C(=O)O)CC4)cc3)cc2)c1NC(=O)OCc1ccc(Cl)cc1Cl` [Compound 99], the pEC50 was below 6.30.

In turn, `C[C@@H](OC(=O)Nc1c(-c2ccc(-c3ccc(C4(C(=O)O)CC4)cc3)cc2)ncn1C)c1ccccc1` [Compound 169] showed a pEC50 of 6.30 to 7.30.

`O=C(Nc1ocnc1-c1ccc(-c2ccc(C3(C(=O)O)CC3)cc2)cc1)OCc1ccccc1` [Compound 148] gave a pEC50 below 6.30.

Take `CN(CC(=O)N1CCN(c2ccc(CC(=O)O)cc2)CC1)C(=O)OCc1ccccc1` [Compound 271]: the pEC50 is below 6.30.

`Cc1noc(C#Cc2ccc3cc(CC(=O)O)ccc3c2)c1NC(=O)O[C@H](C)c1ccccc1` [Compound 128]: the pEC50 is 6.30 to 7.30.

In the case of `C[C@@H](OC(=O)Nc1cnsc1-c1ccc(-c2ccc(C3(C(=O)O)CC3)cc2)cc1)c1ccccc1` [Compound 114], the pEC50 is above 7.30.

`Cc1noc(-c2ccc(-c3ccc(C(C(=O)O)c4ccccc4)cc3)cc2)c1NC(=O)O[C@H](C)c1ccccc1Cl` (single isomer, unassigned) [Compound 16]: the pEC50 was above 7.30.

Molecule `Cc1nsc(-c2ccc(-c3ccc(C4(C(=O)O)CC4)cc3)cc2)c1NC(=O)O[C@H](C)C1=C(Cl)CCC1` (single isomer, unassigned) [Compound 216] had a pEC50 above 7.30.

Molecule `C[C@@H](OC(=O)Nc1c(-c2cc(F)c(-c3ccc(C4(C(=O)O)CC4)cc3)cc2F)cnn1C)c1ccccc1Cl` [Compound 199] gave a pEC50 above 7.30.

Molecule `C[C@@H](OC(=O)Nc1c(-c2c(F)cc(-c3ccc(C4(C(=O)O)CC4)cc3)cc2F)cnn1C)c1ccccc1` [Compound 205] showed a pEC50 above 7.30.

`C[C@@H](OC(=O)Nc1nonc1-c1ccc(-c2ccc(C3(C(=O)O)CC3)cc2)cc1)c1ccccc1Cl` [Compound 177] gave a pEC50 above 7.30.

Turning to `Cc1ccc2c(NC(=O)O[C@H](C)c3ccccc3)c(-c3ccc(-c4ccc(C5(C(=O)O)CC5)cc4)cc3)sc2n1` [Compound 214], the pEC50 was below 6.30.

With `CC(C)n1ncc(-c2ccc(-c3ccc(C4(C(=O)O)CC4)cc3)cc2)c1NC(=O)O[C@H](C)c1ccccc1` [Compound 220], the pEC50 is above 7.30.

`O=C(Nc1ncoc1-c1ccc(-c2ccc(C3(C(=O)O)CC3)cc2)cc1)OCc1ccccc1` [Compound 145]: the pEC50 is 6.30 to 7.30.

For `CC(C)NC(=O)Nc1ccnc(-c2ccc(-c3ccc(CC(=O)O)cc3)cc2)c1` [reference compound], the pEC50 was below 6.30.

The molecule `Cc1noc(-c2ccc(-c3ccc(N4CC[C@@H](C(=O)O)C4)cc3)cc2)c1NC(=O)O[C@H](C)c1ccccc1Cl` [Compound 134] gave a pEC50 of 6.30 to 7.30.

For the molecule `C[C@@H](OC(=O)Nc1c(-c2ccc(-c3ccc(C4(C(=O)O)CC4)cc3)cc2)oc2cnccc12)c1ccccc1` [Compound 150], the pEC50 is above 7.30.

With `O=C(O)Cc1ccc(N2CCN(C(=O)[C@H](NC(=O)OCc3ccccc3)c3ccccc3)CC2)cc1` [Compound 272], the pEC50 is below 6.30.

`Cc1nsc(-c2ccc(-c3ccc(C(C(=O)O)c4ccccc4)cc3)cc2)c1NC(=O)O[C@H](C)c1ccccc1Cl` (stereo partly drawn) [Compound 69] had a pEC50 above 7.30.

`C[C@@H](OC(=O)Nc1c(-c2ccc(-c3ccc(C4(C(=O)O)CC4)cc3)cc2)oc2nc(C(F)(F)F)ccc12)c1ccccc1` [Compound 212] gave a pEC50 below 6.30.

The molecule `Cc1nsc(-c2c(F)cc(-c3ccc(C4(C(=O)O)CC4)cc3)cc2F)c1NC(=O)O[C@H](C)c1ccccc1` [Compound 183] showed a pEC50 of 6.30 to 7.30.

Turning to `Cc1noc(-c2ccc(-c3ccc4c(c3)CCC4C(=O)O)cc2)c1NC(=O)O[C@H](C)c1ccccc1Cl` (stereo partly drawn) [Compound 27], the negative-log EC50 (pEC50) was above 7.30.

`Cc1nsc(-c2ccc(-c3ccc(C4(C(=O)O)CC4)cc3)cc2)c1NC(=O)O[C@@H](C)c1ccccc1` [Compound 236] gave a pEC50 below 6.30.

`Cc1nc(NC(=O)O[C@H](C)c2ccccc2Cl)n(-c2ccc(-c3ccc(C4(C(=O)O)CC4)cc3)cc2)n1` [Compound 162]: the pEC50 was below 6.30.

`Cc1noc(C#Cc2cc3sc(C4(C(=O)O)CC4)cc3s2)c1NC(=O)O[C@H](C)c1ccccc1` [Compound 255] gave a pEC50 above 7.30.

For `Cc1noc(C#Cc2ccc3cc(CC(=O)O)ccc3c2)c1NC(=O)O[C@H](C)c1ccccc1Cl` [Compound 129], the pEC50 was 6.30 to 7.30.

Consider `Cc1noc(-c2nc3cc4oc(C5(C(=O)O)CC5)nc4cc3o2)c1NC(=O)O[C@H](C)c1ccccc1` [Compound 178], for which the pEC50 was 6.30 to 7.30.

For the molecule `Cc1ccc2c(NC(=O)O[C@H](C)c3ccccc3)c(-c3ccc(-c4ccc(C5(C(=O)O)CC5)cc4)cc3)oc2n1` [Compound 215], the pEC50 was below 6.30.

`Cc1nsc(-c2ccc(-c3ccc(C4(C(=O)OC5OC(C(=O)O)C(O)C(O)C5O)CC4)cc3)cc2)c1NC(=O)O[C@H](C)c1ccccc1` (stereo partly drawn) [Compound 238]: the pEC50 was below 6.30.

As to `Cc1cc(-c2snc(C)c2NC(=O)O[C@H](C)c2ccccc2Cl)c(Cl)cc1-c1ccc(C2(C(=O)O)CC2)cc1` [Compound 122], the pEC50 was above 7.30.

`CC(C)NC(=O)Nc1ncncc1-c1ccc(-c2ccc(CC(=O)O)cc2)cc1` [reference compound]: the pEC50 was below 6.30.

As to `Cc1noc(-c2ccc(-c3ccc(N4CC[C@H](C(=O)O)C4)cc3)cc2)c1NC(=O)O[C@H](C)c1ccccc1Cl` [Compound 135], the pEC50 was 6.30 to 7.30.

For the molecule `C[C@@H](OC(=O)Nc1nnn(C)c1-c1ccc(-c2ccc(C3(C(=O)O)CC3)cc2)cc1)c1ccccc1` [Compound 226], the pEC50 was below 6.30.

In turn, `Cc1nsc(-c2ccc3cc(C#CC4(C(=O)O)CC4)ccc3c2)c1NC(=O)O[C@H](C)c1ccccc1Cl` [Compound 87] gave a pEC50 above 7.30.

The molecule `Cc1nsc(-c2ccc(-c3ccc(C4(C(=O)O)CC4)cc3)c(Cl)c2)c1NC(=O)O[C@H](C)c1ccccc1Cl` [Compound 186] had a pEC50 above 7.30.

`O=C(O)Cc1ccc(-c2ccc(-c3cc(NC(=O)C4CCCC4)ccn3)cc2)cc1` [reference compound] had a pEC50 below 6.30.

In turn, `CCCC(=O)Nc1ccnc(-c2ccc(-c3ccc(CC(=O)O)cc3)cc2)c1` [reference compound] showed a pEC50 below 6.30.

`O=C(Nc1snnc1-c1ccc(-c2ccc(C3(C(=O)O)CC3)cc2)cc1)OCc1ccccc1` [Compound 173] gave a pEC50 below 6.30.

The molecule `O=C(Nc1scnc1-c1ccc(-c2ccc(C3(C(=O)O)CC3)cc2)cc1)OCc1ccccc1` [Compound 108] showed a pEC50 of 6.30 to 7.30.

In turn, `O=C(O)Cc1ccc(N2CCN(C(=O)[C@@H](NC(=O)OCc3ccccc3)c3ccccc3)CC2)cc1` [Compound 268] had a pEC50 below 6.30.

The molecule `CCCCC(=O)NCC(=O)c1ccc(-c2ccc(CC(=O)O)cc2)cc1` [reference compound] showed a pEC50 below 6.30.
